Our source for the IC50 values is patent US9212182B2, “Bicyclic sulfonamide compounds as sodium channel inhibitors” (AMGEN INC., priority 2013, dated 2015).

The target of this test is Nav 1.7 (Homo sapiens (Human), UniProt Q15858). Description: in-vitro Nav 1.7 PX (IC50). Format: cell-based.
Sequence of Nav 1.7 (Q15858 whole entry): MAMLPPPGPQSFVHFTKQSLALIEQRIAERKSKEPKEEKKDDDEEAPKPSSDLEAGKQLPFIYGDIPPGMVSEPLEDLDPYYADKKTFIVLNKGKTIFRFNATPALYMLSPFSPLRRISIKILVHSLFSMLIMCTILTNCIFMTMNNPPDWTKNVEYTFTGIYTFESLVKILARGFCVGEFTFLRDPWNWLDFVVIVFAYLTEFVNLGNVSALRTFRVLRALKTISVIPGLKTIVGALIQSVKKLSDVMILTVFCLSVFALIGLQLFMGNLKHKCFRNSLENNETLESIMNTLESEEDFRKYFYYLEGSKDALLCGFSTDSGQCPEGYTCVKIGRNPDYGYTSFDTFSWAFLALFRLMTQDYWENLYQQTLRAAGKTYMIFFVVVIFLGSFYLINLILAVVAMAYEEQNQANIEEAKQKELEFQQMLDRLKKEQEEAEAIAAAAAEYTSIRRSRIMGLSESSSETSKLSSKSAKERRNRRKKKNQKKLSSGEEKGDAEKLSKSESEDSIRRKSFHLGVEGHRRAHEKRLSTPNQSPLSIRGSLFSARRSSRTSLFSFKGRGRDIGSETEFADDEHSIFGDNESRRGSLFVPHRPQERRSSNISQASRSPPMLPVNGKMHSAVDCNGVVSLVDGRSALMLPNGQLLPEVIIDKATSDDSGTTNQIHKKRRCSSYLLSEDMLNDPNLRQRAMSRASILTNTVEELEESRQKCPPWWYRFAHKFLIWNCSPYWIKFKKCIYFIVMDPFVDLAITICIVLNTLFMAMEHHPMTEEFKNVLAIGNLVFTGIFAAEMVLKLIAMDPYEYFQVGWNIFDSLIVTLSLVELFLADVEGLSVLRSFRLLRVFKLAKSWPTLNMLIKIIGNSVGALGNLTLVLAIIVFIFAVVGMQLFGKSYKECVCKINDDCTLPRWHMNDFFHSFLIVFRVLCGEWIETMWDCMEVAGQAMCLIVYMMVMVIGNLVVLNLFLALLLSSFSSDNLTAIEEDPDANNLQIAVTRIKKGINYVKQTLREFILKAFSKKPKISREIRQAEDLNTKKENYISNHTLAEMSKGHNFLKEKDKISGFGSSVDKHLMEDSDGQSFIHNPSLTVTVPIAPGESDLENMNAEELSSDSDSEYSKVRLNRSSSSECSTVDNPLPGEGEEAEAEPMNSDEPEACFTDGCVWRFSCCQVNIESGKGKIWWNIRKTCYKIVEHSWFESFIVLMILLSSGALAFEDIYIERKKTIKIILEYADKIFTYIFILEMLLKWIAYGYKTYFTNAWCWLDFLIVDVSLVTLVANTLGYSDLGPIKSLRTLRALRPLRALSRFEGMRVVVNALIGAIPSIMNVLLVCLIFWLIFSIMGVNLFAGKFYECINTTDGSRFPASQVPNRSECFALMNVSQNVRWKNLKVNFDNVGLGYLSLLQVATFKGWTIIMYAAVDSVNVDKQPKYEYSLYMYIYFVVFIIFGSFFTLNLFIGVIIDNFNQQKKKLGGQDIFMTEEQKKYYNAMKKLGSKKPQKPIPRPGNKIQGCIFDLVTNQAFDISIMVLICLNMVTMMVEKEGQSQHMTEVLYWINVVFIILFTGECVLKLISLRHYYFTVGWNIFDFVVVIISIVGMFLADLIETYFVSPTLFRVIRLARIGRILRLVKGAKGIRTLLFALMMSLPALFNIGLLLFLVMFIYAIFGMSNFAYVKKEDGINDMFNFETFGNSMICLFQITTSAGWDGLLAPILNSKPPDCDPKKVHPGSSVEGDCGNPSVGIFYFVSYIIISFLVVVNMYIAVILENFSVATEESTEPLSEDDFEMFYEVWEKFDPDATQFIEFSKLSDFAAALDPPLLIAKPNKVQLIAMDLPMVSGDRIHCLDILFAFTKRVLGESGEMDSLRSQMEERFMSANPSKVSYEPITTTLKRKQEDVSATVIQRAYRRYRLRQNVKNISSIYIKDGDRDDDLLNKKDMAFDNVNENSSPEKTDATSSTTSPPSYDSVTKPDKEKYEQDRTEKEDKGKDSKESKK
Regarding `COc1cc(-c2ccc(F)cc2)c(F)cc1-n1c(=O)cnc2cc(S(=O)(=O)Nc3ccon3)ccc21` [Example 1141, 1-(2,4′-difluoro-5-methoxy-4-biphenylyl)-N-3-isoxazolyl-2-oxo-1,2-dihydro-6-quinoxalinesulfonamide], the IC50 – broadly, the concentration that gives 50% inhibition – is 106 nM.

Molecule `COc1cc(C#CC2CCCC2)c(F)cc1-n1c(=O)cnc2cc(S(=O)(=O)Nc3ccon3)ccc21` [Example 1142, 1-(4-(cyclopentylethynyl)-5-fluoro-2-methoxyphenyl)-N-3-isoxazolyl-2-oxo-1,2-dihydro-6-quinoxalinesulfonamide] returned an IC50 of 79 nM.

`O=c1ccc2cc(S(=O)(=O)Nc3ccon3)ccc2n1[C@@H]1CC[C@@H](c2cccc(F)c2)C1` [Example 1143, 1-((1R,3R)-3-(3-fluorophenyl)cyclopentyl)-N-3-isoxazolyl-2-oxo-1,2-dihydro-6-quinolinesulfonamide, 1-((1R,3S)-3-(3-fluorophenyl)cyclopentyl)-N-3-isoxazolyl-2-oxo-1,2-dihydro-6-quinolinesulfonamide, 1-((1S,3R)-3-(3-fluorophenyl)cyclopentyl)-N-3-isoxazolyl-2-oxo-1,2-dihydro-6-quinolinesulfonamide, 1-((1S,3S)-3-(3-fluorophenyl)cyclopentyl)-N-3-isoxazolyl-2-oxo-1,2-dihydro-6-quinolinesulfonamide]: inhibition was half-maximal at 8910 nM (IC50).

In turn, `COc1ccc(CC#N)cc1-n1c(=O)ccc2cc(S(=O)(=O)Nc3ccon3)ccc21` [Example 1146, 1-(5-(cyanomethyl)-2-methoxyphenyl)-N-3-isoxazolyl-2-oxo-1,2-dihydro-6-quinolinesulfonamide] returned an IC50 of 3590 nM.

Consider `COc1ccc(C#CC2CCCC2)cc1-n1c(=O)ccc2cc(S(=O)(=O)Nc3ccon3)ccc21` [Example 1147, 1-(5-(cyclopentylethynyl)-2-methoxyphenyl)-N-3-isoxazolyl-2-oxo-1,2-dihydro-6-quinolinesulfonamide], for which the IC50 amounted to 121 nM.

`COc1ccccc1-n1c(=O)ccc2cc(S(=O)(=O)Nc3ccon3)ccc21` [Example 1154, N-(isoxazol-3-yl)-1-(2-methoxyphenyl)-2-oxo-1,2-dihydroquinoline-6-sulfonamide]: the IC50 turned out to be 10100 nM.

As for `COc1cnc(-c2cc(Cl)ccc2F)cc1-n1c(=O)ccc2cc(S(=O)(=O)Nc3ccon3)ccc21` [Example 1169, 1-(2-(5-chloro-2-fluorophenyl)-5-methoxy-4-pyridinyl)-N-3-isoxazolyl-2-oxo-1,2-dihydro-6-quinolinesulfonamide], the IC50 is 805 nM.

Take `COc1cc(-c2ccc(F)c(F)c2)c(F)cc1-n1c(=O)cnc2cc(S(=O)(=O)Nc3ccon3)ccc21` [Example 1179, N-3-isoxazolyl-2-oxo-1-(2,3′,4′-trifluoro-5-methoxy-4-biphenylyl)-1,2-dihydro-6-quinoxalinesulfonamide]: the IC50 worked out at 62 nM.

The molecule `COc1cc(-c2ccc(F)c(F)c2)c(F)cc1-n1c(=O)cnc2cc(S(=O)(=O)Nc3cccnn3)ccc21` [Example 1180, 2-oxo-N-3-pyridazinyl-1-(2,3′,4′-trifluoro-5-methoxy-4-biphenylyl)-1,2-dihydro-6-quinoxalinesulfonamide] showed an IC50 of 265 nM.

Turning to `COc1cc(-c2cccc(OC(F)F)c2)c(F)cc1-n1c(=O)cnc2cc(S(=O)(=O)Nc3ccon3)ccc21` [Example 1193, 1-(3′-(difluoromethoxy)-2-fluoro-5-methoxy-4-biphenylyl)-N-3-isoxazolyl-2-oxo-1,2-dihydro-6-quinoxalinesulfonamide], the IC50 is 93 nM.

In turn, `COc1cc(-c2ccc(F)c(C)c2)c(F)cc1-n1c(=O)cnc2cc(S(=O)(=O)Nc3ccon3)ccc21` [Example 1194, 1-(2,4′-difluoro-5-methoxy-3′-methyl-4-biphenylyl)-N-3-isoxazolyl-2-oxo-1,2-dihydro-6-quinoxalinesulfonamide] yielded an IC50 of 56 nM.

The molecule `COc1cc(-c2ccc(Cl)c(C)c2)ccc1-n1c(=O)cnc2cc(S(=O)(=O)Nc3ccon3)ccc21` [Example 1195, 1-(4′-chloro-3-methoxy-3′-methyl-4-biphenylyl)-N-3-isoxazolyl-2-oxo-1,2-dihydro-6-quinoxalinesulfonamide] registered an IC50 of 54 nM.

`COc1cc(-c2ccc(-n3c(=O)cnc4cc(S(=O)(=O)Nc5ccon5)ccc43)c(OC)c2)ccc1C` [Example 1197, 1-(3,3′-dimethoxy-4′-methyl-4-biphenylyl)-N-3-isoxazolyl-2-oxo-1,2-dihydro-6-quinoxalinesulfonamide] came in with an IC50 of 146 nM.

As for `COc1cc(-c2ccc(F)c(Cl)c2)ccc1-n1c(=O)cnc2cc(S(=O)(=O)Nc3ccon3)ccc21` [Example 1198, 1-(3′-chloro-4′-fluoro-3-methoxy-4-biphenylyl)-N-3-isoxazolyl-2-oxo-1,2-dihydro-6-quinoxalinesulfonamide], the IC50 came to 39 nM.

`COc1cc(-c2ccc(Cl)c(C)c2)ccc1-n1c(=O)cnc2cc(S(=O)(=O)Nc3ncccn3)ccc21` [Example 1199, 1-(4′-chloro-3-methoxy-3′-methyl-4-biphenylyl)-2-oxo-N-2-pyrimidinyl-1,2-dihydro-6-quinoxalinesulfonamide]: half-maximal inhibition (IC50) required 127 nM.

With `COc1cc(-c2cccc(C(F)(F)F)c2)ccc1-n1c(=O)cnc2cc(S(=O)(=O)Nc3ncccn3)ccc21` [Example 1200, 1-(3-methoxy-3′-(trifluoromethyl)-4-biphenylyl)-2-oxo-N-2-pyrimidinyl-1,2-dihydro-6-quinoxalinesulfonamide], it took 78 nM to reach half-maximal inhibition (IC50).

As for `COc1cc(-c2cc(OC)c(-n3c(=O)cnc4cc(S(=O)(=O)Nc5ncccn5)ccc43)cc2F)ccc1Cl` [Example 1201, 1-(4′-chloro-2-fluoro-3′,5-dimethoxy-4-biphenylyl)-2-oxo-N-2-pyrimidinyl-1,2-dihydro-6-quinoxalinesulfonamide], 110 nM corresponded to half-maximal inhibition (IC50).

As for `COc1nc(OCC(F)(F)C2CCOCC2)c(Cl)cc1-n1c(=O)ccc2cc(S(=O)(=O)Nc3ccon3)ccc21` [Example 1211, 1-(5-chloro-6-(2,2-difluoro-2-(tetrahydro-2H-pyran-4-yl)ethoxy)-2-methoxy-3-pyridinyl)-N-3-isoxazolyl-2-oxo-1,2-dihydro-6-quinolinesulfonamide], the IC50 was found to be 793 nM.

Molecule `COc1nc(O[C@H](C)C(F)(F)C(F)F)c(Cl)cc1-n1c(=O)ccc2cc(S(=O)(=O)Nc3ccon3)ccc21` [Example 1212, 1-(5-chloro-2-methoxy-6-(((1R)-2,2,3,3-tetrafluoro-1-methylpropyl)oxy)-3-pyridinyl)-N-3-isoxazolyl-2-oxo-1,2-dihydro-6-quinolinesulfonamide, 1-(5-chloro-2-methoxy-6-(((1S)-2,2,3,3-tetrafluoro-1-methylpropyl)oxy)-3-pyridinyl)-N-3-isoxazolyl-2-oxo-1,2-dihydro-6-quinolinesulfonamide] yielded an IC50 of 136 nM.

Regarding `COc1nc(OCc2ccc(F)cc2F)c(Cl)cc1-n1c(=O)ccc2cc(S(=O)(=O)Nc3ccon3)ccc21` [Example 1213, 1-(5-chloro-6-((2,4-difluorobenzyl)oxy)-2-methoxy-3-pyridinyl)-N-3-isoxazolyl-2-oxo-1,2-dihydro-6-quinolinesulfonamide], the IC50 was 172 nM.

For the molecule `COc1nc(OCc2ccc(F)cc2)c(Cl)cc1-n1c(=O)ccc2cc(S(=O)(=O)Nc3ccon3)ccc21` [Example 1214, 1-(5-chloro-6-((4-fluorobenzyl)oxy)-2-methoxy-3-pyridinyl)-N-3-isoxazolyl-2-oxo-1,2-dihydro-6-quinolinesulfonamide], the midpoint of inhibition, the IC50, lay at 111 nM.

`COc1nc(OCc2ccc(F)c(C(F)(F)F)c2)c(Cl)cc1-n1c(=O)ccc2cc(S(=O)(=O)Nc3ccon3)ccc21` [Example 1215, 1-(5-chloro-6-((4-fluoro-3-(trifluoromethyl)benzyl)oxy)-2-methoxy-3-pyridinyl)-N-3-isoxazolyl-2-oxo-1,2-dihydro-6-quinolinesulfonamide] returned an IC50 of 24 nM.

As for `COc1nc(OCc2ccc(F)c(F)c2F)c(Cl)cc1-n1c(=O)ccc2cc(S(=O)(=O)Nc3ccon3)ccc21` [Example 1216, 1-(5-chloro-2-methxy-6-((2,3,4-trifluorobenzyl)oxy)-3-pyridinyl)-N-3-isoxazolyl-2-oxo-1,2-dihydro-6-quinolinesulfonamide], the IC50 turned out to be 119 nM.

As for `COc1nc(OCc2ccc(F)c(F)c2)c(Cl)cc1-n1c(=O)ccc2cc(S(=O)(=O)Nc3ccon3)ccc21` [Example 1217, 1-(5-chloro-6-((3,4-difluorobenzyl)oxy)-2-methoxy-3-pyridinyl)-N-3-isoxazolyl-2-oxo-1,2-dihydro-6-quinolinesulfonamide], the IC50 stood at 96 nM.

`COc1nc(OCc2cc(F)c(F)c(F)c2)c(Cl)cc1-n1c(=O)ccc2cc(S(=O)(=O)Nc3ccon3)ccc21` [Example 1218, 1-(5-chloro-2-methoxy-6-((3,4,5-trifluorobenzyl)oxy)-3-pyridinyl)-N-3-isoxazolyl-2-oxo-1,2-dihydro-6-quinolinesulfonamide]: the midpoint of inhibition, the IC50, lay at 39 nM.

`COc1nc(Oc2ccc(F)cc2)c(Cl)cc1-n1c(=O)ccc2cc(S(=O)(=O)Nc3ccon3)ccc21` [Example 1220, 1-(5-chloro-6-(4-fluorophenoxy)-2-methoxy-3-pyridinyl)-N-3-isoxazolyl-2-oxo-1,2-dihydro-6-quinolinesulfonamide] came in with an IC50 of 3100 nM.

`COc1nc(Oc2ccc(F)cc2F)c(Cl)cc1-n1c(=O)ccc2cc(S(=O)(=O)Nc3ccon3)ccc21` [Example 1221, 1-(5-chloro-6-(2,4-difluorophenoxy)-2-methoxy-3-pyridinyl)-N-3-isoxazolyl-2-oxo-1,2-dihydro-6-quinolinesulfonamide] showed a 50% inhibitory concentration (IC50) of 2590 nM.

Consider `COc1nc(Oc2ccc(F)c(F)c2)c(Cl)cc1-n1c(=O)ccc2cc(S(=O)(=O)Nc3ccon3)ccc21` [Example 1222, 1-(5-chloro-6-(3,4-difluorophenoxy)-2-methoxy-3-pyridinyl)-N-3-isoxazolyl-2-oxo-1,2-dihydro-6-quinolinesulfonamide], for which inhibition was half-maximal at 903 nM (IC50).

In turn, `COc1nc(O[C@H]2C[C@H]3CC[C@@H]2C3)c(Cl)cc1-n1c(=O)ccc2cc(S(=O)(=O)Nc3ccon3)ccc21` [Example 1223, 1-(6-((1R,2S,4S)-bicyclo[2.2.1]hept-2-yloxy)-5-chloro-2-methoxy-3-pyridinyl)-N-3-isoxazolyl-2-oxo-1,2-dihydro-6-quinolinesulfonamide] came in with an IC50 of 416 nM.
